The assay is described as follows: Inhibition of EGFR L858R mutant (unknown origin) using poly (Glu, Tyr) as substrate after 40 mins by kinase-glo plus luminescence assay. A general note: Kinase-Glo reads ATP consumption through a luciferase reaction.
Consider `CN(C)CCOc1ccc(Nc2ncc3nc([S+]([O-])c4ccccc4)n(C4CCOCC4)c3n2)cc1` (centres undefined), for which the half-maximal inhibitory concentration (IC50) amounted to 2.6 nM. In the case of `CN1CCN(c2ccc(Nc3ncc4nc(Sc5ccccc5)n([C@H]5CC[C@H](O)CC5)c4n3)cc2)CC1`, the IC50 worked out at 2.4 nM. As for `CN1CCN(c2ccc(Nc3ncc4nc([S+]([O-])c5ccccc5)n(C5CCCC5)c4n3)cc2)CC1` (centres undefined), the half-inhibitory concentration (IC50) is 4.2 nM.

With `CN(C)CCOc1ccc(Nc2ncc3nc(Sc4cccc(F)c4)n(C4CCOCC4)c3n2)cc1`, the half-inhibitory concentration (IC50) is 5.8 nM. On to `CN(C)CCOc1ccc(Nc2ncc3nc(Sc4ccccc4)n(C4CCOCC4)c3n2)cc1`, for which the IC50 is 1.7 nM. Regarding `CN(C)C1CCN(c2ccc(Nc3ncc4nc(Sc5ccccc5)n(C5CCOCC5)c4n3)cc2)CC1`, the concentration for half-maximal inhibition (IC50) was 1.9 nM.

`CN1CCN(c2ccc(Nc3ncc4nc(Sc5ccccc5)n(C5CCCC5)c4n3)cc2)CC1`: the IC50 is 4.2 nM. With `CN(C)CCOc1ccc(Nc2ncc3nc(Sc4ccc(F)cc4)n(C4CCOCC4)c3n2)cc1` the figure was 1.2 nM; with `CN1CCN(c2ccc(Nc3ncc4nc(Sc5ccccc5)n(C5CCOCC5)c4n3)cc2)CC1`, 2 nM.

The IC50 is the concentration at which inhibition is half-maximal.

Values taken from BindingDB's records for doi:10.1016/j.bmc.2018.03.025 (Xi'An Jiaotong University, 2018).
